Measurements taken from US12216122B2, “Compositions and methods relating to detection, inhibition, and imaging of indoleamine 2,3-dioxygenase 1 (IDO1)” (Regeneron Pharmaceuticals, Inc., priority 2019, dated 2025).
Entries after “also recorded” stand apart in the source; their conditions may differ. Where two headings read alike, the source gives them in different places. Numbered stars: 1 amine (or outer) side, 2 acyl side, 3 side chain; on linkers, the order of the positions; unused ones are H or OH. Bridge positions count the residues as written; N and C are the ends. Square brackets hold non-standard residues; d marks the D form. Triazole bridges read from a SMILES are 1,4-linked. Ends that are not written are not given here. Peptide text beside a SMILES is read from it. * marks the point of attachment. Biotinyl(3aR,4R,6aS) = O=C1N[C@@H]2[C@@H](CS[C@@H]2CCCCC(=O)*)N1; NH(CH2CH2O)5CH2CO = O=C(COCCOCCOCCOCCOCCN[*:1])[*:2]; dTrp(1-Me) = Cn1cc(C[C@@H](N)C(=O)O)c2ccccc21; X1 = O=C(CSc1nonc1/C(=N/O)Nc1ccc(F)c(Br)c1)*; Trp(1-Me) = Cn1cc(C[C@H](N)C(=O)O)c2ccccc21; Lys(N3) = [N-]=[N+]=NCCCC[C@H](N)C(=O)O; Phe(4-F) = N[C@@H](Cc1ccc(F)cc1)C(=O)O; dPhe(4-F) = N[C@H](Cc1ccc(F)cc1)C(=O)O; dNMeV = CN[C@@H](C(=O)O)C(C)C; AEEEA = NCCOCCOCCOCC(=O)O; Pra = C#CC[C@H](N)C(=O)O; βAla = NCCC(=O)O

Assays:
[1] = Percent organic elution in reverse-phase HPLC (C18) as lipophilicity readout; assay type: physicochemical; details: for % MeCN: Table 16
Description: The predicted increase in lipophilicity for wyvay (SEQ ID NO:2) was experimentally confirmed by the percent organic (% B) elution during reverse-phase HPLC (RP-HPLC) using a C18 column where solvents A=water+0.1% TFA and B=acetonitrile+0.1% TFA.

[2] = biological target: T1, His-tagged IDO1 human recombinant protein (Homo sapiens, UniProt P14902); test: IDO1 ELISA (Affinity Assay): sandwich ELISA, biotinylated ligand immobilized on NEUTRAVIDIN plate; assay type: binding; details: for Binding to human IDO1 by ELISA, in words: alanine scan, 3-mer/4-mer and substituted variants compared with parent macrocycle
T1 construct: purchased BPS Biosciences 71182
Description: (§1) Protocol: A black 96-well NEUTRAVIDIN® Coated High Binding Capacity plate (15510, Pierce) was coated with 2 μM biotinylated macrocyclic peptide ligand in TBS (25 mM Tris-HCl, 150 mM NaCl, pH 7.6) for 2 h at room temperature. The plate was aspirated and then washed with Wash Buffer (0.05% (v/v) TWEEN® 20 in PBS, 6×). His-tagged IDO1 human recombinant protein (71182, BPS Biosciences) was serially diluted in Wash Buffer (from 200 to 0 nM) and incubated in the designated microwells for 1 h at room temperature. Microwells were aspirated and subsequently washed with Wash Buffer (11×). To detect the bound IDO1 protein, Alkaline Phosphatase (AP)-conjugated Anti-6×HIS TAG® antibody [HIS-1] (ab49746, Abcam) was prepared at 1:10,000 dilution and added to the microwells for 1 h at room temperature. The plate was aspirated and washed with Wash Buffer (5×). ATTOPHOS® AP Fluorescent Substrate System (S1000, Promega) was employed to develop the microwells. Using an excitation wavelength of 430 nm, fluorescent emission at 535 nm was recorded by Beckman Coulter DTX880 photometer. Titration curves were fit using a four-parameter regression curve fitting program to determine EC50 values.
For these assays, a dilution series of His-tagged IDO1 human recombinant protein was captured using the macrocyclic peptide ligands immobilized on a NEUTRAVIDIN®-coated plate. […] The sequences of the peptide ligands are listed in Table 1, where D-amino acids are denoted in lowercase, Me-Trp=1-methyl-L-tryptophan, and F-Phe=4-fluoro-L-phenylalanine. Chemical structures are shown below Table 1.
The D-alanine substituted, biotin-PEG3-modified macrocycles were tested in the IDO1 ELISA (Affinity assay). For these assays, a dilution series of His-tagged IDO1 human recombinant protein was captured using macrocycles immobilized on a NEUTRAVIDIN®-coated plate.

murine IDO1 protein = murine IDO1 protein (Mus musculus, UniProt P28776); test: ELISA against murine IDO1 protein (species cross-reactivity); assay type: binding; details: Table 10; read-out: Mouse IDO EC50
Description: as §1
To test for cross-reactivity with murine IDO1, the human IDO1 targeted macrocyclic peptide ligands were assayed against the murine IDO1 protein by ELISA.

HeLa cells = test: Cellular internalization of fluorescent IDO1 ligands (flow cytometry); assay type: cell-based; details: for Internalization of fluorescently labeled peptide, in words: Cy5 or FITC label, flow cytometry
Description: Internalization of fluorescently labeled peptides (using Cy5 or FITC) was measured by concentration dependent flow cytometry of unstimulated HeLa cells incubated for one hour with the peptide. […] Internalization was also testing using a cellular inhibition assay, which occurs over 48 hours (rather than the one hour for the flow cytometry assay). Internalized FITC-wyvay (SEQ ID NO:2) at 48 hours was compared to one hour in both unstimulated and stimulated HeLa cells (Table 13). Cell penetration of FITC-wyvay (SEQ ID NO:2) increases with time; more internalized FITC-wyvay (SEQ ID NO:2) can be detected at 48 hours compared to one hour. After one hour, no difference in intracellular staining of FITC-wyvay (SEQ ID NO:2) is observed in unstimulated versus stimulated cells. At 48 hours, there is a slight increase in intracellular FITC-wyvay (SEQ ID NO:2) in stimulated compared to unstimulated cells.
Protocol: HeLa cells were cultured to confluence (˜500,000 cells) in 6-well plates in cell culture medium (DMEM+10% Fetal Bovine Serum (FBS)+1% Penicillin/Streptomycin) or in cell culture medium containing 100 ng/mL IFNγ to stimulate IDO1 expression. The cells were treated with 2 μM or 8 μM macrocyclic IDO1 ligand labeled with either Cy5 or FITC for either 1 hour, 24 hours, or 48 hours as indicated. After treatment, the ligands were aspirated and the cells were washed twice with 1× Phosphate Buffered Saline (PBS). The cells were then harvested by treatment with 0.05% Trypsin-1×EDTA for 5 min at 37° C. Trypsin was quenched by the addition of PBS+2% FBS. The cells in suspension were washed twice in PBS+2% FBS, then resuspended in 500 μL PBS+2% FBS and analyzed for Cy5 or FITC fluorescence using a BD LSR Fortessa X-20 flow cytometer or/and ImageStream X Mark II imaging flow cytometer. Flow Cytometry Standard (fcs) data files were analyzed using FlowJo Software version 10.

[3] = 2 μM biotinylated macrocycle immobilized, human IDO1 titrated 200 to 0 nM, read-out: EC50, sandwich ELISA for human IDO1 protein against biotin-PEG3-modified macrocycle
[4] = Table 10, read-out: Human IDO EC50
[5] = binding analysis of VHL-linked Epitope 2 ligand, read-out: EC50

T1 sequence (P14902 whole entry): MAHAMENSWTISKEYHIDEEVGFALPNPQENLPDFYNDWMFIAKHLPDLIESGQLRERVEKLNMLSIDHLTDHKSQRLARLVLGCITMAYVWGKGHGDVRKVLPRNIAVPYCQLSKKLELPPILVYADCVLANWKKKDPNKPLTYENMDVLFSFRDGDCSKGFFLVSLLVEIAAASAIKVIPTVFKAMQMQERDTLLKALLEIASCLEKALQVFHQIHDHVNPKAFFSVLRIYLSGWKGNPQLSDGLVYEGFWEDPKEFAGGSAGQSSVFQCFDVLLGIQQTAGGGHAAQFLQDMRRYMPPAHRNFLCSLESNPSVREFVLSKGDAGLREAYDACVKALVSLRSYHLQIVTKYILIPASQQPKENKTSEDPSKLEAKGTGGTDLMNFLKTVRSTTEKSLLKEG
murine IDO1 protein, sequence (P28776 whole entry): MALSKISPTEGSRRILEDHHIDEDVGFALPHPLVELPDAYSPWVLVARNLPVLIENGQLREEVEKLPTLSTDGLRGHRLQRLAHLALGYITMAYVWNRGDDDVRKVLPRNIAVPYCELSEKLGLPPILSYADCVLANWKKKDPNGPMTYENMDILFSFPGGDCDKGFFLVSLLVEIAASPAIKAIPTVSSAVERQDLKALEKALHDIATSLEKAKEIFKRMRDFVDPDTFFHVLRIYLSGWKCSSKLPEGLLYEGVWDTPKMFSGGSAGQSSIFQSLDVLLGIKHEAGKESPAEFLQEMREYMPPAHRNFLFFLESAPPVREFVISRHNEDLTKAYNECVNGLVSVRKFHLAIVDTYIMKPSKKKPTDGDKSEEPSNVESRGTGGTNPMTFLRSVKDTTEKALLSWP

EC50 [2, 3] [nM] | EC50 [2, 4] [nM] | EC50 (murine IDO1 protein) [nM] | Molecule | Internalization of fluorescently labeled peptide, in words (HeLa cells) | further results
 |  |  | CC(C)[C@H]1NC(=O)[C@@H](Cc2ccc(O)cc2)NC(=O)[C@@H](Cc2c[nH]c3ccccc23)NC(=O)[C@@H](NC(=O)COCCOCCOCCOCCOCCNC(=O)CCNC(=O)CSc2nonc2/C(=N/O)Nc2ccc(F)c(Br)c2)Cc2cn(nn2)CCCC[C@@H](C(N)=O)NC(=O)[C@@H](Cc2ccc(O)cc2)NC(=O)[C@@H](C)NC1=O [Inh-BA-PEG5-wyvay] ({X1-βAla}-[NH(CH2CH2O)5CH2CO][Pra][dW][dY][dV][dA][dY][Lys(N3)]-NH2; triazole 2-8; N-terminus and C-terminus assumed) |  | % MeCN [1]: 46.90%
65 | 85 ± 18 | 44 | NC(=O)[C@@H]1CCCCn2cc(nn2)C[C@H](NC(=O)COCCOCCOCCNC(=O)CCCC[C@H]2SC[C@H]3NC(=O)N[C@H]32)C(=O)N[C@H](CO)C(=O)N2CCC[C@@H]2C(=O)N[C@H](Cc2c[nH]c3ccccc23)C(=O)N[C@H](Cc2c[nH]c3ccccc23)C(=O)N[C@H](Cc2ccc(F)cc2)C(=O)N1 [spww(F-Phe), biotin-PEG3-Cy(spww(F-Phe))] ({Biotinyl(3aR,4R,6aS)-AEEEA}-[Pra][dS][dP][dW][dW][dPhe(4-F)][Lys(N3)]-NH2; triazole 1-7) |  | 
 |  |  | CC(C)[C@H]1NC(=O)[C@@H](Cc2ccc(O)cc2)NC(=O)[C@@H](Cc2c[nH]c3ccccc23)NC(=O)[C@@H](N)Cc2cn(nn2)CCCC[C@@H](C(N)=O)NC(=O)[C@@H](Cc2ccc(O)cc2)NC(=O)[C@@H](C)NC1=O [wyvay] (H-[Pra][dW][dY][dV][dA][dY][Lys(N3)]-NH2; triazole 1-7) | dose response cellular uptake; also recorded: Concentration dependent internalization | EC50 ([2]; Table 12, read-out: EC50): 45 nM; Binding to human IDO1 by ELISA, in words [2]: modest loss in binding affinity; EC50 [2, 5]: 45 nM; HPLC % B ([1]; Table 12, C18, A=water+0.1% TFA, B=acetonitrile+0.1% TFA): 33.4%
 |  |  | CC(C)[C@H]1NC(=O)[C@@H](Cc2ccc(O)cc2)NC(=O)[C@@H](Cc2c[nH]c3ccccc23)NC(=O)[C@@H](NC(=O)CNC(=O)CNC(=O)CNC(=O)CNC(=O)CNC(=O)CNC(=O)CNC(=O)CSc2nonc2/C(=N/O)Nc2ccc(F)c(Br)c2)Cc2cn(nn2)CCCC[C@@H](C(N)=O)NC(=O)[C@@H](Cc2ccc(O)cc2)NC(=O)[C@@H](C)NC1=O [Inh-Gly7-wyvay] (X1-GGGGGGG[Pra][dW][dY][dV][dA][dY][Lys(N3)]-NH2; triazole 8-14) |  | % MeCN [1]: 43.72%
20 | 19 ± 1 | 89 ± 26 | CC(C)C[C@H]1NC(=O)[C@@H](CC(N)=O)NC(=O)[C@@H](NC(=O)COCCOCCOCCNC(=O)CCCC[C@H]2SC[C@H]3NC(=O)N[C@H]32)Cc2cn(nn2)CCCC[C@@H](C(N)=O)NC(=O)[C@@H](Cc2ccc(F)cc2)NC(=O)[C@@H](Cc2cn(C)c3ccccc23)NC(=O)[C@@H](Cc2ccccc2)NC1=O [nlf(Me-Trp)(F-Phe), biotin-PEG3-Cy(nlf(Me-Trp)(F-Phe))] ({Biotinyl(3aR,4R,6aS)-AEEEA}-[Pra][dN][dL][dF][dTrp(1-Me)][dPhe(4-F)][Lys(N3)]-NH2; triazole 1-7) |  | EC50 [2, 5]: 44 nM
 |  |  | CC(C)[C@H](NC(=O)CCNC(=O)CSc1nonc1/C(=N/O)Nc1ccc(F)c(Br)c1)C(=O)N[C@H](C(=O)N[C@H](C(=O)N[C@H]1Cc2cn(nn2)CCCC[C@@H](C(N)=O)NC(=O)[C@@H](Cc2ccc(O)cc2)NC(=O)[C@@H](C)NC(=O)[C@@H](C(C)C)NC(=O)[C@@H](Cc2ccc(O)cc2)NC(=O)[C@@H](Cc2c[nH]c3ccccc23)NC1=O)C(C)C)C(C)C [Inh-BA-(Val)3-wyvay] ({X1-βAla}-VVV[Pra][dW][dY][dV][dA][dY][Lys(N3)]-NH2; triazole 4-10) |  | % MeCN [1]: 45.12%
 |  |  | wy(N-Me-v)ay: wyvay peptide ligand with N-methylated valine (third N—H) ([Pra][dW][dY][dNMeV][dA][dY]; triazole N-C; not fully specified (C-terminus); printed as wy(N-Me-v)ay) | much higher than wyvay | 
43 | 51 ± 17 | 48 | CC(C)C[C@H]1NC(=O)[C@@H](CC(N)=O)NC(=O)[C@@H](NC(=O)COCCOCCOCCNC(=O)CCCC[C@H]2SC[C@H]3NC(=O)N[C@H]32)Cc2cn(nn2)CCCC[C@@H](C(N)=O)NC(=O)[C@@H](CCCNC(=N)N)NC(=O)[C@@H](Cc2cn(C)c3ccccc23)NC(=O)[C@@H](Cc2c[nH]c3ccccc23)NC1=O [nlw(Me-Trp)r, biotin-PEG3-Cy(nlw(Me-Trp)r)] ({Biotinyl(3aR,4R,6aS)-AEEEA}-[Pra][dN][dL][dW][dTrp(1-Me)][dR][Lys(N3)]-NH2; triazole 1-7) |  | 
 |  |  | FITC-nlf(Me-Trp)(F-Phe): FITC labeled Epitope 2 macrocycle nlf(Me-Trp)(F-Phe) ([dN][dL][dF][Trp(1-Me)][Phe(4-F)]; triazole (positions not given here); also: FITC label, site not given here, macrocycle by click between N-terminal Pra and C-terminal Az4, not in chain) | reduced but detectable and concentration dependent | 
 |  |  | FITC-wyvay: FITC labeled wyvay macrocycle ([dW][dY][dV][dA][dY]; triazole (positions not given here); also: FITC label, site not given here, macrocycle by click between N-terminal Pra and C-terminal Az4, not in chain) |  | MFIR (HeLa cells; stimulated HeLa cells, 1 hour): 2.11; MFIR (HeLa cells; stimulated HeLa cells, 48 hours): 5.27; MFIR (HeLa cells; unstimulated HeLa cells, 1 hour): 2.27; MFIR (HeLa cells; unstimulated HeLa cells, 48 hours): 4.91
20 | 18 ± 2 | 36 ± 16 | Cn1cc(C[C@H]2NC(=O)[C@@H](Cc3ccccc3)NC(=O)[C@@H](CCCNC(=N)N)NC(=O)[C@@H](Cc3ccccc3)NC(=O)[C@@H](NC(=O)COCCOCCOCCNC(=O)CCCC[C@H]3SC[C@H]4NC(=O)N[C@H]43)Cc3cn(nn3)CCCC[C@@H](C(N)=O)NC(=O)[C@@H](CO)NC2=O)c2ccccc21 [frf(Me-Trp)s, biotin-PEG3-Cy(frf(Me-Trp)s)] ({Biotinyl(3aR,4R,6aS)-AEEEA}-[Pra][dF][dR][dF][dTrp(1-Me)][dS][Lys(N3)]-NH2; triazole 1-7) |  | EC50 ([2]; Example 9, read-out: Binding affinity (EC50) of prioritized Epitope 1 hits): 20 nM
 |  |  | N=C(N)NCCC[C@H]1NC(=O)[C@@H](Cc2ccc(O)cc2)NC(=O)[C@@H](Cc2c[nH]c3ccccc23)NC(=O)[C@@H](NC(=O)COCCOCCOCCNC(=O)CCCC[C@H]2SC[C@H]3NC(=O)N[C@H]32)Cc2cn(nn2)CCCC[C@@H](C(N)=O)NC(=O)[C@@H](Cc2ccc(O)cc2)NC1=O [wyry, Biotin-PEG3-Cy(wyry)] ({Biotinyl(3aR,4R,6aS)-AEEEA}-[Pra][dW][dY][dR][dY][Lys(N3)]-NH2; triazole 1-6) | Concentration dependent internalization | Binding to human IDO1 by ELISA, in words [2]: best affinity among the 4-mer macrocycles; also recorded: superior binding affinity
